Laboratory results published in patent US7365231B2, “Compound with antitumor activity and preparation method therefor” (National Taiwan University of Science & Technology, priority 2005, dated 2008).

Columns and labels:
Colo 205 cells [1] = experiment: Cell cycle analysis by flow cytometry; assay type: cell-based, human
Procedure: (§1) The cell cycle progression of Colo205, HT 29 and HCT-15 cells was examined using flow cytometry after exposure to 1, 2, 4 or 8 μM DPA for 72 hours. […] HT-29 cells were mainly in G0/G1 phase (84.1-86.0%), and only a few percent of cells in S phase (7.4-8.0%) after exposure to 4 μM DPA for 48-72 h. […] The G0/G1 arrest was not induced in the HCT-15 cells treated with 1-8 μM DPA for 24-72 h. […] DPA exerted the dose specific effect for the induced G0/G1 arrest on Colo 205 cells. […] In addition, we noted that DPA-mediated accumulation of Colo205 and HT 29 cells in G1 phase (>80%) was similar to that of DPD (Anti-Cancer Drug 2004; 15:277-80). It is likely that the induced G1-arrest without concomitant apoptosis on Colo 205 and HT 29 colon cancer cells is one unique property of structure I.

HCT-15 cells = experiment: Cell cycle analysis by flow cytometry; assay type: cell-based, human
Procedure: as §1

[2] = test system: human colon cancer Colo 205 xenografts; experiment: In vivo antiproliferation, colon cancer xenografts, DPA once a week; design: species or system ICR nude mice; conditions: for tumor size compared to vehicle control: end point
Procedure: (§2) We further examined whether DPA is also effective in vivo after tumor formation. For compare the in vivo antitumor activity with DPD (DPA analogue), we followed the method of our previous study (Br. J Cancer 2003; 89: 1995-2003), and the similar doses were used. Cancer cells were transplanted into ICR nude mice, and when the tumors were palpable (2-4 mm), the mice were treated either with vehicle control or DPA (20-80 mg kg^−1, i.p., once a week). […] Its tumor size (48.6 mm^2) was about 3-fold larger than the average tumor size (16.7 mm^2) of the other DPA 80 mg kg^−1-treated mice at 7 days after the initial treatment. […] (ii) DPA presented the dose-specific effect for antitumor activity on human colon cancer xenografts. The dose-specific phenomenon was also found in vitro study of DPA-induced cell cycle arrest on Colo 205 cells as shown in Table 3.

[3] = Toxicity and body weight in nude mice, DPA once a week; assay type: in vivo; conditions: DPA 20-80 mg kg^−1, i.p.
Procedure: as §2

[4] = test system: human colon cancer Colo 205 xenografts; experiment: In vivo antitumor effect of DPA and/or CPT-11, xenografts; design: species or system ICR nude mice; conditions: DPA 20 mg/kg i.p. twice a week; end of experiment
Procedure: To further investigate whether DPA could enhance the antitumoral activity of the chemotherapeutic agent CPT-11, Colo 205 cells were treated with DPA or DPA in combination with CPT-11. Cancer cells were transplanted into ICR nude mice, and when the tumors were palpable (30˜35 mm^3), the mice were treated either with vehicle control, CPT-11 or DPA (20 mg/kg, i.p., twice a week). Tumour volume(V) was calculated according to the following formula: V(mm^3)=0.4AB^2, where A and B are the longest diameter and the shortest diameter, respectively (Cancer Res. 1966; 26:1787-1800). […] The tumor size of DPA in combination with CPT-11-treated mice was a 73% decrease as compared with that of CPT-11-treated mice.

Colo 205 cells [5] = experiment: Cell cycle analysis by flow cytometry; assay type: cell-based, human; remark: listed apart in the source

In the case of `Nc1ccc(Oc2ccc(C3(c4ccc(Oc5ccc(N)c(O)c5)cc4)C4CC5CC(C4)CC3C5)cc2)cc1O` [DPA, 2,2-bis(4-(4-amino-3-hydroxyphenoxy)phenyl)adamantane], the “accumulation of cells in G1 phase” value (Colo 205 cells [1]; Colo205) is reported as > 80%, the “G2/M(%)” value (Colo 205 cells [1]; Colo 205, DPA 1 μM, 72 h) is reported as 10.1% and the “S(%)” value (Colo 205 cells [1]; Colo 205, DPA 1 μM, 72 h) is reported as 29.6%. The “cells in G2/M phase” value (HCT-15 cells; 8 μM DPA for 24-48 h) was 6.9-7.6%, the G0/G1 arrest (HCT-15 cells; 1-8 μM DPA for 24-72 h) was “not induced” and the “G0/G1(%)” value (HCT-15 cells; DPA 1 μM, 24 h) was 31.4%. The “G2/M(%)” value (HCT-15 cells; DPA 1 μM, 24 h) was 18.1%, the “S(%)” value (HCT-15 cells; DPA 1 μM, 24 h) was 50.6% and the “G0/G1(%)” value (HCT-15 cells; DPA 1 μM, 48 h) was 39.1%. For the same compound, the “G2/M(%)” value (HCT-15 cells; DPA 1 μM, 48 h) was 15.8%, the “S(%)” value (HCT-15 cells; DPA 1 μM, 48 h) was 45.1% and the “G0/G1(%)” value (HCT-15 cells; DPA 1 μM, 72 h) was 51.8%. The “G2/M(%)” value (HCT-15 cells; DPA 1 μM, 72 h) was 13.2%, the “S(%)” value (HCT-15 cells; DPA 1 μM, 72 h) was 35.0% and the “G0/G1(%)” value (HCT-15 cells; DPA 2 μM, 24 h) was 31.8%. The “G2/M(%)” value (HCT-15 cells; DPA 2 μM, 24 h) was 14.2%, the “S(%)” value (HCT-15 cells; DPA 2 μM, 24 h) was 54.0% and the “G0/G1(%)” value (HCT-15 cells; DPA 2 μM, 48 h) was 35.2%. For the same compound, the “G2/M(%)” value (HCT-15 cells; DPA 2 μM, 48 h) was 16.0%, the “S(%)” value (HCT-15 cells; DPA 2 μM, 48 h) was 48.8% and the “G0/G1(%)” value (HCT-15 cells; DPA 2 μM, 72 h) was 49.2%. For the same compound, the “G2/M(%)” value (HCT-15 cells; DPA 2 μM, 72 h) was 14.3%, the “S(%)” value (HCT-15 cells; DPA 2 μM, 72 h) was 36.6% and the “G0/G1(%)” value (HCT-15 cells; DPA 4 μM, 24 h) was 30.6%. The “G2/M(%)” value (HCT-15 cells; DPA 4 μM, 24 h) was 11.2%, the “S(%)” value (HCT-15 cells; DPA 4 μM, 24 h) was 58.2% and the “G0/G1(%)” value (HCT-15 cells; DPA 4 μM, 48 h) was 30.5%. The “G2/M(%)” value (HCT-15 cells; DPA 4 μM, 48 h) was 14.3%, the “S(%)” value (HCT-15 cells; DPA 4 μM, 48 h) was 55.3% and the “G0/G1(%)” value (HCT-15 cells; DPA 4 μM, 72 h) was 40.8%. The “G2/M(%)” value (HCT-15 cells; DPA 4 μM, 72 h) was 17.2%, the “S(%)” value (HCT-15 cells; DPA 4 μM, 72 h) was 42.1% and the “G0/G1(%)” value (HCT-15 cells; DPA 8 μM, 24 h) was 39.6%. For the same compound, the “G2/M(%)” value (HCT-15 cells; DPA 8 μM, 24 h) was 6.9%, the “S(%)” value (HCT-15 cells; DPA 8 μM, 24 h) was 53.5% and the “G0/G1(%)” value (HCT-15 cells; DPA 8 μM, 48 h) was 37.5%. For the same compound, the “G2/M(%)” value (HCT-15 cells; DPA 8 μM, 48 h) was 7.6%, the “S(%)” value (HCT-15 cells; DPA 8 μM, 48 h) was 54.9% and the “G0/G1(%)” value (HCT-15 cells; DPA 8 μM, 72 h) was 38.2%. For the same compound, the “G2/M(%)” value (HCT-15 cells; DPA 8 μM, 72 h) was 11.9%, the “S(%)” value (HCT-15 cells; DPA 8 μM, 72 h) was 49.9% and the “concentration of maximum in vivo antitumor effect” value ([2]; Colo 205 xenografts, i.p.) was “about 40 mg kg^−1 week^−1”. For the same compound, the “tumor size compared to vehicle control” value ([2]; DPA 20 mg kg^−1 i.p. once a week) was “not significantly decreased”, the “tumor size compared to control groups” value ([2]; DPA 40 mg kg^−1 i.p. once a week) was “significantly (P<0.05) decreased” and the average tumor size ([2]; DPA 40 mg kg^−1 i.p. once a week, end of study (control 81.5)) was 29.6 mm^2. The “tumor size of one mouse with abnormally large tumor” value ([2]; DPA 80 mg kg^−1, 7 days after initial treatment) was 48.6 mm^2, the “average tumor size of the other mice” value ([2]; DPA 80 mg kg^−1, 7 days after initial treatment, without the outlier mouse) was 16.7 mm^2 and the “tumor size compared to vehicle control” value ([2]; DPA 80 mg kg^−1 i.p. once a week) was “not significantly decreased”. The body weight [3] was “No significant reduction in body weight”, the “tumor size compared to control groups” value [4] was “significantly (P<0.05) decreased” and the “G0/G1 cell-cycle arrest and apoptosis” value (Colo 205 cells [5]; Colo205) was “G0/G1 cell-cycle arrest without concomitant apoptosis”. For the same compound, the “cells in G1 phase” value (Colo 205 cells [5]; Colo 205, 2 μM DPA for 48-72 h) was 84.1-87.1%, the “cells in G2/M phase” value (Colo 205 cells [5]; Colo 205, 2 μM DPA for 48-72 h) was 5.1-5.6% and the “cells in S phase” value (Colo 205 cells [5]; Colo 205, 2 μM DPA for 48-72 h) was 7.8-10.3%. For the same compound, the “G0/G1(%)” value (Colo 205 cells [5]; Colo 205, DPA 1 μM, 24 h) was 58.9%, the “G2/M(%)” value (Colo 205 cells [5]; Colo 205, DPA 1 μM, 24 h) was 12.0% and the “S(%)” value (Colo 205 cells [5]; Colo 205, DPA 1 μM, 24 h) was 29.0%. For the same compound, the “G0/G1(%)” value (Colo 205 cells [5]; Colo 205, DPA 1 μM, 48 h) was 53.3%, the “G2/M(%)” value (Colo 205 cells [5]; Colo 205, DPA 1 μM, 48 h) was 7.6% and the “S(%)” value (Colo 205 cells [5]; Colo 205, DPA 1 μM, 48 h) was 39.0%. For the same compound, the “G0/G1(%)” value (Colo 205 cells [5]; Colo 205, DPA 1 μM, 72 h) was 60.3%, the “G0/G1(%)” value (Colo 205 cells [5]; Colo 205, DPA 2 μM, 24 h) was 67.1% and the “G2/M(%)” value (Colo 205 cells [5]; Colo 205, DPA 2 μM, 24 h) was 48.3%. The “S(%)” value (Colo 205 cells [5]; Colo 205, DPA 2 μM, 24 h) was 24.1%, the “G0/G1(%)” value (Colo 205 cells [5]; Colo 205, DPA 2 μM, 48 h) was 84.1% and the “G2/M(%)” value (Colo 205 cells [5]; Colo 205, DPA 2 μM, 48 h) was 5.6%. The “S(%)” value (Colo 205 cells [5]; Colo 205, DPA 2 μM, 48 h) was 10.3%, the “G0/G1(%)” value (Colo 205 cells [5]; Colo 205, DPA 2 μM, 72 h) was 87.1% and the “G2/M(%)” value (Colo 205 cells [5]; Colo 205, DPA 2 μM, 72 h) was 5.1%. For the same compound, the “S(%)” value (Colo 205 cells [5]; Colo 205, DPA 2 μM, 72 h) was 7.8%, the “G0/G1(%)” value (Colo 205 cells [5]; Colo 205, DPA 4 μM, 24 h) was 67.5% and the “G2/M(%)” value (Colo 205 cells [5]; Colo 205, DPA 4 μM, 24 h) was 8.2%. For the same compound, the “S(%)” value (Colo 205 cells [5]; Colo 205, DPA 4 μM, 24 h) was 24.3%, the “G0/G1(%)” value (Colo 205 cells [5]; Colo 205, DPA 4 μM, 48 h) was 71.6% and the “G2/M(%)” value (Colo 205 cells [5]; Colo 205, DPA 4 μM, 48 h) was 10.4%. For the same compound, the “S(%)” value (Colo 205 cells [5]; Colo 205, DPA 4 μM, 48 h) was 18.1%, the “G0/G1(%)” value (Colo 205 cells [5]; Colo 205, DPA 4 μM, 72 h) was 76.3% and the “G2/M(%)” value (Colo 205 cells [5]; Colo 205, DPA 4 μM, 72 h) was 10.3%. The “S(%)” value (Colo 205 cells [5]; Colo 205, DPA 4 μM, 72 h) was 13.4%, the “G0/G1(%)” value (Colo 205 cells [5]; Colo 205, DPA 8 μM, 24 h) was 70.5% and the “G2/M(%)” value (Colo 205 cells [5]; Colo 205, DPA 8 μM, 24 h) was 5.2%. For the same compound, the “S(%)” value (Colo 205 cells [5]; Colo 205, DPA 8 μM, 24 h) was 24.3%, the “G0/G1(%)” value (Colo 205 cells [5]; Colo 205, DPA 8 μM, 48 h) was 70.6% and the “G2/M(%)” value (Colo 205 cells [5]; Colo 205, DPA 8 μM, 48 h) was 5.2%. The “S(%)” value (Colo 205 cells [5]; Colo 205, DPA 8 μM, 48 h) was 24.1%, the “G0/G1(%)” value (Colo 205 cells [5]; Colo 205, DPA 8 μM, 72 h) was 70.7% and the “G2/M(%)” value (Colo 205 cells [5]; Colo 205, DPA 8 μM, 72 h) was 3.4%. The “S(%)” value (Colo 205 cells [5]; Colo 205, DPA 8 μM, 72 h) was 25.8%.
